# Results: a melting point compilation (Tetko et al.; mined from patent text by program, amines drawn as free bases though some values may be those of a salt)
row,SMILES,melting point [°C]
1,N#Cc1ccc(C(F)(F)F)c(C(F)(F)F)c1,71 to 72
2,CCCCCC1C=CC(c2ccc(C(F)(F)F)cc2)=CC1 (stereo not given),54
3,CCNC(=O)CCCC1CCN(Cc2cnc3cc(NC(=O)c4ccc(-c5ccc(F)cc5)cc4)c(C)cc3c2)CC1,240
4,CCn1c(=O)c2c(-c3nc(C)no3)ncn2c2cccnc21,251 to 252
5,O=C(Nc1nnn(C(F)F)n1)C1c2ccccc2Oc2ccccc21,168 to 169
6,CCN1C(=O)C2=C(c3ccccc3)N(CC)C(=O)C2=C1c1ccccc1,229 to 230
7,CC(C)(CCOc1ccc(Cl)cc1)C(=O)Cn1cncn1,188 to 190
8,CN(C)C1(c2ccccc2)CCC(=CC(=O)N2CCC(c3c[nH]c4ccccc34)C2)CC1 (stereo not given),94 to 97
9,CSCc1cnc2c(C)cccc2c1O,226 to 228
10,CN(C(=O)N1Cc2nc(Cc3ccccc3)n(Cc3ccccc3)c2C[C@H]1CO)c1ccccc1,80 to 87
11,FC(F)(F)c1cc(C(F)(F)F)c2nc(N3CCN(c4ncccc4C(F)(F)F)CC3)[nH]c2c1,142
12,CCc1ccc(Nc2c(F)c(F)cc(F)c2F)c(CC(=O)O)c1,165 to 169
13,CC1(C)CCc2c1cc(C=O)c(O)c2Br,77.5 to 78.5
14,NCc1c(NC2CCCCC2)cccc1-c1ccccc1,95 to 96
15,CC(C)(C)c1nnc(-c2nn(-c3ccc(F)cc3F)c3c2C2CCC3C2)o1 (stereo not given),108 to 110
16,CCCCCCCCCCCCCCOc1ccc(C(=O)Cl)cc1OCCCCCCCCCCCCCC,68 to 70
17,O=C(OCCN1CCCC1)c1ccccc1Nc1ccnc2cc(Cl)ccc12,102 to 104
18,CCOc1ccccc1C=C1CCc2c1oc1ccc(C(=O)O)cc1c2=O,300 to 302
19,Cc1ccccc1-c1nsc(SN)n1,110 to 112
20,CC(C)(N)C(=O)NCCn1ccc2ncnc(Nc3ccc(Oc4cccc5sncc45)c(Cl)c3)c21,198

row,SMILES,melting point [°C]
1,FC(F)(F)c1nnc2ccc(-c3ccccc3)nn12,183 to 184
2,N#Cc1cc(C(=O)O)ccc1F,177 to 178
3,Cc1nnc(-c2ccc3occ(-c4ccc(S(C)=O)c(C)c4)c3c2)o1 (stereo not given),195 to 196
4,COc1cc(C(=O)O)cc(Cl)c1Cl,218 to 219
5,CC(=O)OCc1c(S(C)(=O)=O)ccc(C(=O)O)c1Cl,219 to 223
6,CN(C)c1ccc(C(=CC(c2ccc(N(C)C)cc2)c2ccc(N(C)C)cc2)c2ccc(N(C)C)cc2)cc1,189 to 190
7,CN1CCC(N=[N+]=[N-])(c2ccccc2)C(O)C1 (stereo not given),170 to 171
8,CC(C)N(C(C)C)S(=O)(=O)N[C@@H](Cc1ccc(Oc2nccc3cnccc23)cc1)C(=O)O,112
9,O=[N+]([O-])c1cc(S(=O)(=O)N(CCO)CCO)sc1Cl,100
10,COc1ccc2ccc(O)c(-c3nnc(Cl)c4ccccc34)c2c1,> 210
11,Cc1ccc2c(Cl)cc(C(=O)NCCCc3ccccc3)c(O)c2n1,109 to 111
12,CC1=C(C(=O)O)OCCO1,103 to 105
13,COC(=O)CN(C)c1cccc(-c2ccc(Cl)cc2)n1,54
14,Cn1c2ccccc2c2c(=O)n([C@@H]3CN4CCC3CC4)ccc21,251 to 252
15,CN(C)c1ccc([PH](=O)c2ccc(N(C)C)cc2)cc1,152
16,OCc1ccc(OCc2ccc3ccccc3n2)cc1,131 to 135
17,COC(=O)C(Br)Cc1ccc(OC)c(C(=O)NCc2ccc(C(F)(F)F)cc2)c1 (stereo not given),110 to 111
18,COc1cc(Nc2c(C#N)cnc3cc(Br)ccc23)c(Cl)cc1F,200 to 202
19,CCOC(=O)C1=C(c2ccc(-n3c(C)nc4cnccc43)nc2)NC(C)=C(C(=O)Nc2ccccn2)C1c1ccccc1Cl (stereo not given),242 to 243
20,CCCCc1oc2ccccc2c1C(=O)c1cc(Br)c(O[C@H](Cc2ccccc2)C(=O)O)c(Br)c1,56 to 58
